Results: patent publication US20150217046A1, “DOSING REGIMENS FOR SUBCUTANEOUSLY INFUSIBLE ACIDIC COMPOSITIONS” (SynAgile Corporation, priority 2012, published 2015)
Read-outs that look alike come from different tables or passages of the source.

Experiments:
[1] = initially about pH 3.7±0.2
Protocol: Such a pH can be maintained for example through co-dissolving citric acid and/or a citrate salt, e.g., monosodium citrate, for example to about 10-50 mM concentration. For infusion it is desired, in order to avoid acid-caused pain, to raise the pH at least to pH 2.4±0.3, for example to 2.4±0.3, 2.6±0.3, 2.8±0.3, 3.1±0.3, 3.4±0.3, 3.7±0.3 or to 4.0±0.3, for example by adding citric acid, monosodium citrate, or trisodium citrate.

[2] = 0.44 M LDEE.HCl, pH 3.7±0.1, 4.0° C., 39 weeks, 3 samples
Protocol: The LD concentration was monitored in 3 samples of 0.44 M LDEE.HCl at pH 3.7±0.1 and 4.0° C.

[3] = 25° C., pH 7 or pH 5; cited from earlier work
[4] = Rate of hydrolysis of LD esters in solution; assay type: physicochemical; details: about pH 4.5, about 23° C.
Protocol: At a particular temperature and pH, the LDEs formed of LD and of different alcohols are hydrolyzed prior to their infusion at different rates. […] The rate of hydrolysis of LDE salts also depends on the anion, i.e., on the acid forming the LDE salt. LDE is hydrolyzed more rapidly when carboxylate anions and/or carboxylic acids replace the chloride anion or HCl. The rate of hydrolysis of the salt formed of LDEE and acetic acid can be about 3 times faster at about pH 4.5 at about 23° C. than that of LDEE.HCl, the salt formed of LDEE and HCl. The rate of hydrolysis at a particular pH and temperature can therefore depend on the buffering agent, e.g., citric acid and/or citrate anions, becoming faster when their concentration is elevated. Typically, the concentration of the buffering ions, i.e., the combined concentrations of citrates and citric acid, is between about 5 mM and 100 mM, for example between about 10 mM and 50 mM. The rate of hydrolysis can increase, for example, when the buffering citric acid-citrate concentration is increased.
In aqueous LDE salt pharmaceutical compositions, the hydrolysis rates generally decrease as the pH decreases, and the shelf life of the LDE salt consequently increases, unless the pH is about 1.7±0.5 or less. […] In acidic pharmaceutical compositions the amines of the LDEs are protonated, making the LDEs cations. […] The rates of hydrolysis generally increase with temperature, and may at least about double or about triple for each 10° C. increase, correspondingly decreasing upon cooling.

[5] = about 0.44 M LDEE.HCl infusible composition
[6] = about 1.0 M LDEE.HCl infusible composition
[7] = first infusion, continuous over 16 hours, 0.163 mL/hour, end of infusion

Question: Which “Estimated operational life at 30° C.” value [1, 5] does the source give for `CCOC(=O)[C@@H](N)Cc1ccc(O)c(O)c1.Cl` [LDEE.HCl, hydrochloride salt of the ethyl ester of L-DOPA] here?
Answer: >3 days

Question: And the “Estimated operational life at 37° C.” value [1, 5]?
Answer: >2 days

Question: And the “Estimated storage life at 4° C.” value [1, 5]?
Answer: >1.5 years

Question: And the “Estimated storage life at 25° C.” value [1, 5]?
Answer: >1 months

Question: What about the “Estimated operational life at 30° C.” value [1, 6] of the same compound?
Answer: >2 days

Question: What about the “Estimated operational life at 37° C.” value [1, 6] of the same compound?
Answer: >1 days

Question: And the “Estimated storage life at 4° C.” value [1, 6]?
Answer: >6 months

Question: And the “Estimated storage life at 25° C.” value [1, 6]?
Answer: >2 weeks

Question: What about the “concentration of LD after refrigerated storage” value [2] of the same compound?
Answer: less than 2 mg/mL

Question: What about the pain during infusion (0.48 M LDEE.HCl pH 3.5, 1.25 millimoles per infusion, all three infusions) of the same compound?
Answer: no pain at any time during the infusions

Question: What about the “diameter of area with redder skin” value [7] of the same compound?
Answer: 3 cm

Question: What about the “diameter of slightly protruding hard swelling” value [7] of the same compound?
Answer: 2.5 cm

Question: What about the “diameter of palpable induration” value (first infusion, continuous over 16 hours, after 21 hours) of the same compound?
Answer: 1 cm

Question: And the diameter of induration (first infusion, continuous over 16 hours, after 2 days)?
Answer: 0.5 cm

Question: And the skin symptoms (second infusion, intermittent over 10.5 hours, 0.35 mL/hour, with oral carbidopa, end of infusion)?
Answer: no skin symptoms at the end of the infusion

Question: What about the skin symptoms (second infusion, intermittent over 10.5 hours, with oral carbidopa, after 11 hours) of the same compound?
Answer: a barely perceptible very lightly pink 2.5 cm diameter zone and a very mild soft palpable swelling

Question: What about the skin symptoms (second infusion, intermittent over 10.5 hours, with oral carbidopa, after 36 hours) of the same compound?
Answer: only a barely palpable 3 cm long 1 cm wide soft horizontal induration

Question: And the skin symptoms (third infusion, intermittent over 10.8 hours, 0.35 mL/hour, without oral carbidopa, end of infusion)?
Answer: no significant skin symptoms at the end of the infusion

Question: And the skin symptoms (third infusion, intermittent, without oral carbidopa, four hours after end of infusion)?
Answer: very slightly more pink over a 2.5 cm diameter zone and there was a small (2 cm×1 cm) barely palpable induration

Question: And the skin symptoms (third infusion, intermittent, without oral carbidopa, fourteen hours after end of infusion)?
Answer: the site could be recognized by its pink color

Question: Which solubility [3] does the source give for `N[C@@H](Cc1ccc(O)c(O)c1)C(=O)O` [levodopa] here?
Answer: ≤ 5 g per liter

Question: With `CC(=O)O.CCOC(=O)C(N)Cc1ccc(O)c(O)c1` (stereo not shown) [salt formed of LDEE and acetic acid] as the compound, how does the “rate of hydrolysis relative to LDEE.HCl” value [4] read?
Answer: about 3 times
